We go through three molecules from patent publication US20240270762A1, “PENICILLIN-BINDING PROTEIN INHIBITORS” (priority 2021, published 2024).

Structures are written as SMILES. Converted amounts (≈) assume the structure as drawn.

For assay [1], the target named is T1, PBP3 from Escherichia coli (K-12) (Escherichia coli, UniProt P0AD68).
T1 construct: made in house
Kind of assay: Bocillin-FL fluorescence polarization competition binding, E. coli PBP3. Put shortly: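 Purified PBPs pre-incubated with inhibitor (E. coli PBP3 1.5 μM, 30 min; P. aeruginosa PBP3 0.75 μM, A. baumannii PBP1a 1 μM and PBP3 0.2 μM, 15 min), then Bocillin-FL 0.1 μM (0.05 μM for PBP1a) added; FP read up to 60 min. EC50 = concentration halving bound Bocillin-FL.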
In general terms: Polarisation of emitted light reports the rotation of a fluorescent probe.

The test system of assay [2] is A. baumannii ATCC 19606. Kind of assay: microbe, parasite or virus in culture. The assay is classed as cell-based. The following applies: Acinetobacter baumannii, ATCC19606, read-out: MIC, A. baumannii ATCC 19606.
For assay [3], the system named is P. aeruginosa CDC-0095. The assay is described as follows: microbe, parasite or virus in culture. The assay is classed as cell-based. The settings on record: Pseudomonas aeruginosa, CDC0095, read-out: Minimum inhibitory concentration, P. aeruginosa CDC-0095.
The subject of assay [4] is A. baumannii CDC-0033. Kind of assay: microbe, parasite or virus in culture. The following applies: Acinetobacter baumannii, CDC0033, read-out: MIC, A. baumannii CDC-0033. It is filed as cell-based.
Assay [5] addresses A. baumannii PBP2 (Acinetobacter baumannii, UniProt D0C8Z9). The assay is described as follows: Bocillin-FL competition binding via gel filtration, A. baumannii PBP2. Put shortly: (§1)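 Enzyme pre-incubated with increasing inhibitor concentrations, then Bocillin-FL added for 15 min further incubation. Bocillin-FL-bound PBP separated by gel filtration and fluorescence read. EC50 from fitting fraction PBP bound vs inhibitor concentration to a Hill-type equation (ymin, ymax, n).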

Assay [6] concerns the target T2, A. baumannii PBP1a (Acinetobacter baumannii, UniProt A0ABX6CK30).
T2 sequence (A0ABX6CK30 1-851): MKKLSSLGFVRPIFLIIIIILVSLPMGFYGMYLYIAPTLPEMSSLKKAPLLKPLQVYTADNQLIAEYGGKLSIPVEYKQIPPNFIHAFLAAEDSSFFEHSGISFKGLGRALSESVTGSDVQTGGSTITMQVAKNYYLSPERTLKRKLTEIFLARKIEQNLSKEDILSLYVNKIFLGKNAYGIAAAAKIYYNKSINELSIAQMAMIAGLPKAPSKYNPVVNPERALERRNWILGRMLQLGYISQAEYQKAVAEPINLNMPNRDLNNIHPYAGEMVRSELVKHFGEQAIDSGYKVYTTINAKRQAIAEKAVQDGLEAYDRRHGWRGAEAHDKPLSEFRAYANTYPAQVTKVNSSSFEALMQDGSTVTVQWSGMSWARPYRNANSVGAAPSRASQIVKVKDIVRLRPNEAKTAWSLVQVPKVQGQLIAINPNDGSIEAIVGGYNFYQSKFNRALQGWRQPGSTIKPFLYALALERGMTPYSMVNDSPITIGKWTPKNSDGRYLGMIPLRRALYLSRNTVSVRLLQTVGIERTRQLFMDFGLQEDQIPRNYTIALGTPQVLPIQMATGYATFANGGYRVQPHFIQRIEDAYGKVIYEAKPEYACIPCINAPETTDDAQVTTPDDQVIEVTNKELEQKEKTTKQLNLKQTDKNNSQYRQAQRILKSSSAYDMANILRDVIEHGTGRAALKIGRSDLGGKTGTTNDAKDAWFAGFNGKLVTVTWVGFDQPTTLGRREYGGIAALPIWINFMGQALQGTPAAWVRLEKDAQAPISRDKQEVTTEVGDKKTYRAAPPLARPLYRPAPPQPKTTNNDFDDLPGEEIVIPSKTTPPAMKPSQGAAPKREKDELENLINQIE
Kind of assay: Bocillin-FL competition binding via gel filtration, A. baumannii PBP1a. The following applies: competition binding assay using Bocillin-FL via gel filtration; read-out: A. baumannii PBP1a Potency. The gist of the method:
as §1
A general note: SEC sorts molecules by how far they enter the pores of the column.

T1 sequence (P0AD68 1-577): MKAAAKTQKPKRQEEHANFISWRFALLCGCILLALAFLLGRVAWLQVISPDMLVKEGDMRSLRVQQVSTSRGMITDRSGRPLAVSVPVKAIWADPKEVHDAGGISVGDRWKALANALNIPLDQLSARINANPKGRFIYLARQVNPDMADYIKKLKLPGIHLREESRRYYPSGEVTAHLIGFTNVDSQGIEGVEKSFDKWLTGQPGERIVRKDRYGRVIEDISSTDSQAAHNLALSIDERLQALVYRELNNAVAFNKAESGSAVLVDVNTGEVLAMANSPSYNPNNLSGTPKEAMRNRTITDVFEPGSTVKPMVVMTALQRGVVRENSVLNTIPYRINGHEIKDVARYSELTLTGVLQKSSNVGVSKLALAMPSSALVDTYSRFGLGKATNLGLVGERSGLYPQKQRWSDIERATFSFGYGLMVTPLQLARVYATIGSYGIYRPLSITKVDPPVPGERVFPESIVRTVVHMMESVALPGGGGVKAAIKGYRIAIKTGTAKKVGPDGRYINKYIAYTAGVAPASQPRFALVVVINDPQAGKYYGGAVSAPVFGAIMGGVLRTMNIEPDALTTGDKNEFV
Chain of A. baumannii PBP2 (D0C8Z9 whole entry): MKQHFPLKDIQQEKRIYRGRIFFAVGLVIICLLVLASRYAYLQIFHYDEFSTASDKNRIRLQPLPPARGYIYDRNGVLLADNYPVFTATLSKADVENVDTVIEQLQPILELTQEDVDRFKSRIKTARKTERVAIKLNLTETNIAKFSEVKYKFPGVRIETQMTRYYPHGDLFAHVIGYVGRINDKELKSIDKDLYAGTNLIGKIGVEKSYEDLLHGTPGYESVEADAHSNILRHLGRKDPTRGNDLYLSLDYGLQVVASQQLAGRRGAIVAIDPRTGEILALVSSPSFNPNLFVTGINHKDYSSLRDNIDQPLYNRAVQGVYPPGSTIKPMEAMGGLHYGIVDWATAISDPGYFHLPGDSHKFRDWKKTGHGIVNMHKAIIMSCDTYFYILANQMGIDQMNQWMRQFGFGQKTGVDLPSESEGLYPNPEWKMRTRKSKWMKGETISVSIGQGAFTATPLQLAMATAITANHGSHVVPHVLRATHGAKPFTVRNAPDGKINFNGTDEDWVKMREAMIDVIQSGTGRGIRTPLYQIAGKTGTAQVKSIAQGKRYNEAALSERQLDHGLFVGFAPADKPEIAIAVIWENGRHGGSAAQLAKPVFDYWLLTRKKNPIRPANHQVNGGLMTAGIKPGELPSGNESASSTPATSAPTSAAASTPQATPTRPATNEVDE

`O=C(O)c1c(F)ccc2c1OB(O)[C@@H](NC(=O)C(NC(=O)N1CCN(C3CCN(C(=O)c4ccc(O)cc4)CC3)C(=O)C1=O)c1cc(F)c(O)c(O)c1Cl)C2` (stereo partly drawn) [Example 427, (3R)-3-(2-(2-chloro-5-fluoro-3,4-dihydroxyphenyl)-2-(4-(1-(4-hydroxybenzoyl)piperidin-4-yl)-2,3-dioxopiperazine-1-carboxamido)acetamido)-7-fluoro-2-hydroxy-3,4-dihydro-2H-benzo[e][1,2]oxaborinine-8-carboxylic acid]: the EC50 in assay [1], in assay [5] and in assay [6] was less than 10 µM in each case. Besides, the results for the MIC in assay [2], in assay [3] and in assay [4] were less than 1 µg/mL, 2 to 4 µg/mL (≈ 2.54 to 5.09 µM) and 2 to 4 µg/mL (≈ 2.54 to 5.09 µM), respectively.

Turning to `O=C(O)c1c(F)ccc2c1OB(O)[C@@H](NC(=O)C(NC(=O)N1CCN(C3CCN(S(=O)(=O)c4cccc(O)c4)CC3)C(=O)C1=O)c1cc(F)c(O)c(O)c1Cl)C2` (stereo partly drawn) [Example 428, (3R)-3-(2-(2-chloro-5-fluoro-3,4-dihydroxyphenyl)-2-(4-(1-((3-hydroxyphenyl)sulfonyl)piperidin-4-yl)-2,3-dioxopiperazine-1-carboxamido)acetamido)-7-fluoro-2-hydroxy-3,4-dihydro-2H-benzo[e][1,2]oxaborinine-8-carboxylic acid], the EC50 in assay [1], in assay [5] and in assay [6] was less than 10 µM throughout. The MIC in assay [2] is less than 1 µg/mL; in assay [3] it was 2 to 4 µg/mL (≈ 2.43 to 4.87 µM); in assay [4], 2 to 4 µg/mL (≈ 2.43 to 4.87 µM).

For the molecule `O=C(O)c1c(F)ccc2c1OB(O)[C@@H](NC(=O)C(NC(=O)N1CCN(C3CCN(S(=O)(=O)c4ccc(O)cc4)CC3)C(=O)C1=O)c1cc(F)c(O)c(O)c1Cl)C2` (stereo partly drawn) [Example 429, (3R)-3-(2-(2-chloro-5-fluoro-3,4-dihydroxyphenyl)-2-(4-(1-((4-hydroxyphenyl)sulfonyl)piperidin-4-yl)-2,3-dioxopiperazine-1-carboxamido)acetamido)-7-fluoro-2-hydroxy-3,4-dihydro-2H-benzo[e][1,2]oxaborinine-8-carboxylic acid], the EC50 in assay [1], in assay [5] and in assay [6] was less than 10 µM each time. Moreover, the MIC in assay [2] is less than 1 µg/mL; in assay [3], 2 to 4 µg/mL (≈ 2.43 to 4.87 µM); in assay [4] it was 2 to 4 µg/mL (≈ 2.43 to 4.87 µM).
